In US20160045625A1, “[11C] AND [18F] LABELED 1,3-DIPHENYL-5-(PYRIMIDIN-2-YL)-PYRIDIN-2(1H)-ONE DERIVATIVES AND THEIR USE FOR PET IMAGING OF THE AMPA RECEPTOR” (EISAI R&D MANAGEMENT CO., LTD., priority 2013, published 2016):

Assays:
AMPA receptor [1] = settings: in vivo PET, rat; cited from earlier work
AMPA receptor [2] = test: In vitro receptor binding assay ([^3H]perampanel, Ki value measurement); parameters: species or system rat (Sprague-Dawley); settings: rat forebrain membranes, 90 min at 4° C., Scatchard analysis
Description: Homogenate of forebrains of rats (Sprague-Dawley) was prepared in ice-cold solution containing 0.32 M sucrose and 0.1 mM EGTA (pH 7.4). Homogenate was centrifuged in 1000 g for 10 min and supernatant was collected. This supernatant was centrifuged in 30000 g for 20 min. Precipitate was suspended in 1 mM EGTA/Tris buffer (pH 8.0) by sonication, subjected osmotic lysis on ice for 10 min and centrifuged in 30000 g for 20 min. This procedure was conducted twice. Precipitate was suspended in 50 mM Tris HCl buffer (pH 7.4) by sonication and centrifuged in 30000 g for 20 min. This procedure was conducted three times. Precipitate was suspended in 50 mM Tris HCl buffer (pH 7.4) by sonication and stocked at −80° C. On the day of binding assay, stocked solution was suspended in 50 mM Tris HCl buffer (pH 7.4) by sonication and centrifuged in 30000 g for 20 min. This procedure was conducted three times. Precipitate was suspended in 50 mM Tris-HCl buffer (pH 7.4) by sonication and used for binding assay.
Receptor solution was re-suspended in binding buffer (50 mM Tris-HCl, pH 7.4) to a final concentration of 0.24 mg tissue eq./assay. The incubation time for [^3H]perampanel on AMPA receptor was 90 min at 4° C. After incubation, membranes were filtered onto GF/B filter presoaked with 0.3% PEI and washed three times with ice-cold wash buffer (same as binding buffer). Each filter was placed in a vial and 6 mL of liquid scintillator reagent (Hionic-Fluor; PerkinElmer Life & Analytical Sciences) were added. Radioactivity was counted (1 min) in a liquid scintillation counter (LSC-6100, Hitachi Aloka Medical, Ltd.).
Saturation isotherms were determined by addition of various concentrations of [^3H]perampanel (1-2000 nM). Nonspecific bindings for [^3H]perampanel was measured in the presence of 15 μM unlabeled compounds. Ki value was calculated by Scatchard analysis of saturation isotherm experiment.

AMPA receptor [3] = test: In vivo PET blocking study in monkey; parameters: species or system Rhesus monkey; settings: i.v. pretreatment 0.02 to 0.1 mg/kg, 15 min prior to radioligand (Example 4); CTX, HIP, CER, THA, STR
Description: FIG. 4. Rhesus monkey PET blocking study of the compound of Example 4. In vivo area under time-radioactivity curves of to the region of interests (CTX, HIP, cerebellum (CER), thalamus (THA), striatum (STR)) in the absence (control) and blockade by pretreatment with the unlabeled compound. Radioactivity is expressed as percentage of standardized uptake value (% SUV) and integrated radioactivity of the specific binding versus reference region (brain stem; BS) from 0 to 40 min during the PET scan.
For the PET blocking study, unlabeled compound (Reference Example 9, 0.1 mg/kg/5 mL to 0.02 mg/kg/5 mL of saline with 10% DMSO, 3 doses) was intravenously administrated via the crural vein as a single slow bolus over 10 min, 15 min prior to radioligand administration. All PET scans were acquired from the same two monkeys (n=2).
Area under time-radioactivity curves of to the region of interests (CTX, HIP, cerebellum (CER), thalamus (THA), STR) in the absence (control) and blockade by pretreatment with Reference Example 9. Radioactivity is expressed as percentage of standardized uptake value (% SUV) and integrated radioactivity from 0 to 40 min during the PET scan.

Ki (AMPA receptor [2]) [nM] | SMILES | clearance from the CNS (AMPA receptor [1]) | specific binding (AMPA receptor [1]) | radioactivity (area under time-radioactivity curves, % SUV, 0 to 40 min) compared to control (AMPA receptor [3])
 | COc1cc2c(cc1O[11CH3])C(c1ccc(Cl)cc1)N(C(C)=O)CC2 (stereo not shown) [N-acetyl-1-(4-chlorophenyl)-6-methoxy-7-[^11C]methoxy-1,2,3,4-tetrahydroisoquinoline] | rapid clearance from the CNS | low specific binding | 
10 | CNc1cccc(-n2cc(-c3ncccn3)cc(-c3ccccc3C#N)c2=O)c1 [Reference Example 9, 2-(1-(3-(methylamino)phenyl)-2-oxo-5-(pyrimidin-2-yl)-1,2-dihydropyridin-3-yl)benzonitrile] |  |  | markedly reduced the radioactivity in dose dependent manner
20 | N#Cc1ccccc1-c1cc(-c2ncccn2)cn(-c2cccc(F)c2)c1=O [Reference Example 15, 2-(1-(3-fluorophenyl)-2-oxo-5-(pyrimidin-2-yl)-1,2-dihydropyridin-3-yl)benzonitrile] |  |  | 
5 | N#Cc1ccccc1-c1cc(-c2ncccn2)cn(-c2ccc(F)c(N)c2)c1=O [Reference Example 19, 2-(1-(3-amino-4-fluorophenyl)-2-oxo-5-(pyrimidin-2-yl)-1,2-dihydropyridin-3-yl)benzonitrile] |  |  | 
22 | O=c1c(-c2ccccc2F)cc(-c2ncccn2)cn1-c1cccc(CF)c1 [Reference Example 22, 3-(2-fluorophenyl)-1-(3-(fluoromethyl)phenyl)-5-(pyrimidin-2-yl)pyridin-2(1H)-one] |  |  | 
